Assay results published in patent publication US10508168B2, “Thermoplastic polymer, method of preparing thermoplastic polymer, and thermoplastic polymer composition including thermoplastic polymer” (LG CHEM, LTD., priority 2015, dated 2019).

Experiment: TGA test of thermal stability of emulsifier fatty acids
Type: physicochemical
Settings: for Temperature at which loss of 5% by weight (w/w) occurs / Temperature at which loss of 50% by weight (w/w) occurs: Table 2; for Thermal stability (TGA comparison): result in words
Source text: The present inventors first performed a process of selecting emulsifier candidates to substitute for a conventionally used fatty acid-based emulsifier so as to change the emulsifier among the aforementioned materials, and then selected an emulsifier having relatively high thermal stability through a boiling point test and a TGA test in accordance with the purpose of the present invention of reducing the amount of gas generated in high-temperature extrusion and injection-molding processes.
FIG. 2 illustrates TGA test comparison results of hydrogenated ricinoleic acid as a chain-type fatty acid including a functional group according to the present invention, stearic acid as saturated fatty acid not including a branch group or a functional group, and fatty acid (FAD acid: mixture of palmitic acid, oleic acid, and stearic acid) included in a conventionally used fatty acid-based emulsifier.

| Temperature at which loss of 5% by weight (w/w) occurs (TGA) [°C] | Temperature at which loss of 50% by weight (w/w) occurs (TGA) [°C] | Thermal stability (TGA comparison) | Loss amount at 270° C. (TGA, 270° C., Table 1) [% by weight] | Temperature at which loss of 10% by weight occurs (TGA, Table 1) [° ° C.] | Compound |
| --- | --- | --- | --- | --- | --- |
| 263 | 455 | superior to stearic acid and fatty acid |  |  | CCCCCCC(O)CCCCCCCCCCC(=O)O (centres unmarked) [Hydrogenated ricinoleic acid, 12-hydroxy octadecanoic acid] |
|  |  | superior to fatty acid | 9 | 273 | CCCCCC[C@@H](O)C/C=C\CCCCCCCC(=O)O [Ricinoleic acid, ricinoleic acid] |
| 237 | 289 |  |  |  | CCCCCCCCCCCCCCCCCC(=O)O [Stearic acid, stearic acid, reference compound] |
